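In this assay, cells in 96-well plates receive the compound at five concentrations for 48 hours. Endpoints are linearly interpolated between the surrounding concentrations. GI50 marks 50% less growth.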 Calls of active or inactive are those of the source. Cut-off read from the data, not from the text of the source: active = GI50 up to about 1.1 µM and inactive = higher.
Tests used:
Experiment in all cases: NCI tumour cell line growth inhibition, 48 h
786-0 = test system: 786-0
CAKI-1 = test system: CAKI-1
CCRF-CEM = test system: CCRF-CEM
HCT-116 = test system: HCT-116
HT-29 = test system: HT-29
Hs-578T = test system: Hs-578T
KM12 = test system: KM12
M14 = test system: M14
MDA-MB-231 = test system: MDA-MB-231
NCI-H460 = test system: NCI-H460
OVCAR-5 = test system: OVCAR-5
RXF 393 = test system: RXF 393
SF-268 = test system: SF-268
SF-295 = test system: SF-295
SNB-75 = test system: SNB-75
U-251 = test system: U-251
OVCAR-4 = test system: OVCAR-4
SK-MEL-28 = test system: SK-MEL-28
HCC 2998 = test system: HCC 2998
SR = test system: SR

Measured: GI50

NC(=O)CCC(CCC(N)=O)(CCC(N)=O)[N+](=O)[O-]
inactive: 786-0 > 100 µM | CAKI-1 > 100 µM | CCRF-CEM > 10 µM | HCT-116 > 100 µM | HT-29 > 100 µM | Hs-578T > 100 µM | KM12 > 100 µM | M14 > 100 µM | MDA-MB-231 > 100 µM | NCI-H460 > 100 µM | OVCAR-5 > 100 µM | RXF 393 > 100 µM | SF-268 > 100 µM | SF-295 > 100 µM | SNB-75 > 100 µM | U-251 > 100 µM

Clc1ccc2c(c1)CC1C[N+]3=C(CCCC3)C1=C2 (stereo unspecified)
inactive: 786-0 > 100 µM | CAKI-1 > 100 µM | CCRF-CEM 83 µM | HCT-116 > 100 µM | HT-29 36.6 µM | Hs-578T > 100 µM | KM12 57.8 µM | M14 53.8 µM | MDA-MB-231 44.8 µM | NCI-H460 40.1 µM | OVCAR-4 37.6 µM | OVCAR-5 > 100 µM | RXF 393 > 100 µM | SF-268 90.4 µM | SF-295 28 µM | SK-MEL-28 > 100 µM | SNB-75 52 µM | U-251 34 µM

O=S(=O)(O)c1ccc(O)c(/N=N/c2c(O)ccc3ccccc23)c1
inactive: 786-0 > 100 µM | CAKI-1 > 100 µM | CCRF-CEM 36.6 µM | HCT-116 > 100 µM | HT-29 > 100 µM | Hs-578T > 100 µM | KM12 > 100 µM | M14 > 100 µM | MDA-MB-231 > 100 µM | OVCAR-4 > 100 µM | OVCAR-5 > 100 µM | RXF 393 > 100 µM | SF-268 > 100 µM | SF-295 > 100 µM | SK-MEL-28 > 100 µM | SNB-75 > 100 µM | U-251 73.6 µM

CC(C)OP(=O)(CN(C)/C(F)=N\C(F)(F)F)OC(C)C
inactive: 786-0 > 100 µM | CAKI-1 > 100 µM | CCRF-CEM > 100 µM | HCC 2998 > 100 µM | HCT-116 > 100 µM | HT-29 > 100 µM | Hs-578T > 100 µM | KM12 > 100 µM | M14 > 100 µM | MDA-MB-231 > 100 µM | NCI-H460 > 100 µM | OVCAR-5 > 100 µM | RXF 393 > 100 µM | SF-268 > 100 µM | SF-295 > 100 µM | SK-MEL-28 > 100 µM | SNB-75 > 100 µM | U-251 > 100 µM

COc1ccc2c(c1)CCCN1Cc3ccccc3CC21 (stereo unspecified)
inactive: 786-0 99.1 µM | CAKI-1 > 100 µM | CCRF-CEM 77.1 µM | HCC 2998 19.1 µM | HCT-116 52.7 µM | HT-29 32.7 µM | Hs-578T > 100 µM | KM12 65 µM | M14 39.5 µM | MDA-MB-231 91.4 µM | NCI-H460 76 µM | OVCAR-4 > 100 µM | OVCAR-5 78.2 µM | RXF 393 48.3 µM | SF-268 > 100 µM | SF-295 65.9 µM | SK-MEL-28 62.1 µM | SNB-75 44.7 µM | U-251 75.2 µM

O=C(O)CC(Cc1ccccc1Cl)C(=O)O (stereo unspecified)
inactive: 786-0 > 100 µM | CAKI-1 > 100 µM | CCRF-CEM > 100 µM | HCC 2998 > 100 µM | HCT-116 > 100 µM | HT-29 > 100 µM | Hs-578T > 100 µM | KM12 > 100 µM | M14 > 100 µM | MDA-MB-231 > 100 µM | NCI-H460 > 100 µM | OVCAR-4 > 100 µM | OVCAR-5 > 100 µM | RXF 393 > 100 µM | SF-268 > 100 µM | SF-295 > 100 µM | SK-MEL-28 > 100 µM | U-251 > 100 µM

Cc1ccc(/C=C2\NC(=S)N(CN3CCOCC3)C2=O)cc1
inactive: 786-0 > 100 µM | CCRF-CEM > 100 µM | HCT-116 > 100 µM | HT-29 > 100 µM | Hs-578T > 100 µM | KM12 > 100 µM | M14 > 100 µM | MDA-MB-231 > 100 µM | OVCAR-4 > 100 µM | OVCAR-5 > 100 µM | SF-268 > 100 µM | SF-295 > 100 µM | SK-MEL-28 > 100 µM | SNB-75 > 100 µM | SR > 100 µM | U-251 > 100 µM

O=C(NNS(=O)(=O)c1ccccc1)c1cccnc1
inactive: 786-0 > 100 µM | CAKI-1 > 100 µM | CCRF-CEM 59.7 µM | HCC 2998 > 100 µM | HCT-116 > 100 µM | HT-29 > 100 µM | Hs-578T > 100 µM | KM12 > 100 µM | M14 > 100 µM | MDA-MB-231 > 100 µM | NCI-H460 > 100 µM | OVCAR-4 > 100 µM | OVCAR-5 > 100 µM | RXF 393 > 100 µM | SF-268 > 100 µM | SF-295 > 100 µM | SK-MEL-28 > 100 µM | SNB-75 > 100 µM | U-251 > 100 µM
